Tests used:
Assay type in all cases: in vivo, pig
pigs [1] = experiment: Swine growth performance, Study A: pigs fed 25-OH D3 and farrowed to sows fed 25-OH D3
Excerpt: (§1) Study A. Two treatment groups were used in all studies. The control group contained first-to-fifth parity pigs (sows and progenies) fed rations without 25-OH D3 supplementation. The experimental group was made up of first-to-fifth parity pigs fed rations supplemented with 50 mcg 25-OH D3/kg diet) and farrowed to sows fed rations supplemented with 25-OH D3 since 6 months old. Study A only covered the pre-starter to finisher stage (41-150 days old) for the first to third parities pigs, while it covered the booster to finisher stage (7-150 days old) for the fourth and fifth parity pigs. Study B. Two treatment groups were also used in this study. Pigs were randomly selected from mixed-parity sows fed rations containing no supplemental 25-OH on the same farm. The control group was fed rations without 25-OH D3, whereas the experimental group was fed rations supplemented with 25-OH D3 (50 mcg 25-OH D3/kg diet). Study B covered the pre-starter to finisher stage (41-150 days old). Number of pigs and replicates: There were 8-11 replicates per treatment and 4 pigs per replicate. Randomization and Allotment of pigs: Pigs were grouped according to size and sex and randomly allocated to each treatment. The number of male-replicates for the two treatments were equalized. Rations: The rations involved in all studies were gestating and lactation rations for the sows. Booster, pre-starter, starter, grower and finisher rations were given to the progenies. Feeding: The experimental pigs were fed ad libitum with dry feeds. Booster pigs (sucklings) were fed starting when they were 7 days old. Feeds were placed in a linear trough designed for piglets. For a few days, only a small amount of feed was given to the pigs, but when they were eating, the required amount was always in the feeder. The amounts of feeds were properly weighed and recorded. Pre-starter pigs were fed for 30 days using linear feeders while they were confined in slatted and elevated nursery pens. The grower-finisher pigs were fed using concrete linear feeders for 80 days while they were confined in pens with cement flooring. The following rations were fed to pigs corresponding to their age.
(§2) Other management Practices: All experimental animals were subject to the standard operating procedure in the farm where these studies were conducted. Data Collection The following data were collected: 1. Weights of piglets at 7 days old 2. Weight of piglets at 28 days old 3. Weight of pigs at 41, 70, 100, 130, and 150 days old 4. Feed consumption during the following periods:
Across parities, pigs weaned from 25-OH D3—fed sows were fed 50 μg 25-OH D3/kg diet and those weaned from control sows were fed the control diet (containing no 25-OH D3). Consistently across the three parities, pigs fed 25-OH D3 gained weight faster (a delta average of 3.9 kg) an converted feed to gain (a delta average of 7 points) more efficient than those fed the control diet.

pigs [2] = experiment: Swine growth performance, Study B / Example 2: pigs fed 25-OH D3, farrowed to sows fed without 25-OH D3
Excerpt: as §1, §2
In this study, the pigs that were used were weaned from sows that were not fed 25-OH D3.

pigs [3] = experiment: Farm records: pigs weaned from 25-OH D3-fed sows but not fed 25-OH D3; details: pigs weaned from 25-OH D3-fed sows but not fed 25-OH D3 (prenatal exposure only)
[4] = across parities, prestarting-to-finishing pigs from 25-OH D3-fed sows, 50 μg 25-OH D3/kg diet
[5] = fifth parity pigs, 41-150-day old, sows fed 25-OH D3, 50 mcg 25-OH D3/kg diet
[6] = fifth parity pigs, 41-150-day old, sows fed 25-OH D3, difference to control
[7] = first parity pigs, 41-to-150-day-old, sows fed 25-OH D3, 50 mcg 25-OH D3/kg diet
[8] = first parity pigs, 41-to-150-day-old, sows fed 25-OH D3, difference to control
[9] = fourth parity pigs, 41-150-old, sows fed 25-OH D3, 50 mcg 25-OH D3/kg diet
[10] = fourth parity pigs, 41-150-old, sows fed 25-OH D3, difference to control
[11] = second parity pigs, 41-to-150-day-old, sows fed 25-OH D3, 50 mcg 25-OH D3/kg diet
[12] = second parity pigs, 41-to-150-day-old, sows fed 25-OH D3, difference to control
[13] = third parity pigs, 41-150-day-old, sows fed 25-OH D3, 50 mcg 25-OH D3/kg diet
[14] = third parity pigs, 41-150-day-old, sows fed 25-OH D3, difference to control
[15] = mixed-parity pigs, 41-to-150-day old, sows fed without 25-OH D3, 50 mcg 25-OH D3/kg diet
[16] = mixed-parity pigs, 41-to-150-day old, sows fed without 25-OH D3, difference to control

C=C1CC[C@H](O)C/C1=C/C=C1\CCC[C@]2(C)[C@@H]([C@H](C)CCCC(C)(C)O)CC[C@@H]12 [25-OH D3, 25-hydroxy vitamin D3]
feed to gain conversion, delta average v. control diet (pigs [1]; [4]): 7 points | weight gain, delta average v. control diet (pigs [1]; [4]): 3.9 kg | Daily wt gain (pigs [1]; [5]): 0.76 kg | Feed: Gain (pigs [1]; [5]): 2.22 | Final body wt (pigs [1]; [5]): 91.94 kg | Initial Body wt (pigs [1]; [5]): 8.66 kg | Total feed intake (pigs [1]; [5]): 184.63 kg | Total wt gain (pigs [1]; [5]): 83.27 kg | Daily wt gain, 25-OH D3 v. control (δ) (pigs [1]; [6]): 0.03 kg | Feed: Gain, 25-OH D3 v. control (δ) (pigs [1]; [6]): 0.00 | Final body wt, 25-OH D3 v. control (δ) (pigs [1]; [6]): 2.51 kg | Initial Body wt, 25-OH D3 v. control (δ) (pigs [1]; [6]): -0.07 kg | Total feed intake, 25-OH D3 v. control (δ) (pigs [1]; [6]): 5.04 kg | Total wt gain, 25-OH D3 v. control (δ) (pigs [1]; [6]): 2.57 kg | Daily wt gain (pigs [1]; [7]): 0.72 kg | Feed: Gain (pigs [1]; [7]): 2.32 | Final body wt (pigs [1]; [7]): 87.78 kg | Initial Body wt (pigs [1]; [7]): 8.24 kg | Total feed intake (pigs [1]; [7]): 184.60 kg | Total wt gain (pigs [1]; [7]): 79.55 kg | Daily wt gain, 25-OH D3 v. control (δ) (pigs [1]; [8]): 0.04 kg | Feed: Gain, 25-OH D3 v. control (δ) (pigs [1]; [8]): −0.15 | Final body wt, 25-OH D3 v. control (δ) (pigs [1]; [8]): 5.72 kg | Initial Body wt, 25-OH D3 v. control (δ) (pigs [1]; [8]): 0.64 kg | Total feed intake, 25-OH D3 v. control (δ) (pigs [1]; [8]): 0.86 kg | Total wt gain, 25-OH D3 v. control (δ) (pigs [1]; [8]): 5.08 kg | Daily wt gain (pigs [1]; [9]): 0.74 kg | Feed: Gain (pigs [1]; [9]): 2.07 | Final body wt (pigs [1]; [9]): 89.57 kg | Initial Body wt (pigs [1]; [9]): 8.43 kg | Total feed intake (pigs [1]; [9]): 166.93 kg | Total weight gain (pigs [1]; [9]): 81.15 kg | Daily wt gain, 25-OH D3 v. control (δ) (pigs [1]; [10]): 0.01 kg | Feed: Gain, 25-OH D3 v. control (δ) (pigs [1]; [10]): −0.05 | Final body wt, 25-OH D3 v. control (δ) (pigs [1]; [10]): 1.21 kg | Initial Body wt, 25-OH D3 v. control (δ) (pigs [1]; [10]): 0.15 kg | Total feed intake, 25-OH D3 v. control (δ) (pigs [1]; [10]): -1.86 kg | Total weight gain, 25-OH D3 v. control (δ) (pigs [1]; [10]): 1.06 kg | Daily wt gain (pigs [1]; [11]): 0.78 kg | Feed: Gain (pigs [1]; [11]): 2.28 | Final body wt (pigs [1]; [11]): 95.78 kg | Initial Body wt (pigs [1]; [11]): 10.56 kg | Total feed intake (pigs [1]; [11]): 193.74 kg | Total wt gain (pigs [1]; [11]): 85.22 kg | Daily wt gain, 25-OH D3 v. control (δ) (pigs [1]; [12]): 0.06 kg | Feed: Gain, 25-OH D3 v. control (δ) (pigs [1]; [12]): −0.04 | Final body wt, 25-OH D3 v. control (δ) (pigs [1]; [12]): 7.34 kg | Initial Body wt, 25-OH D3 v. control (δ) (pigs [1]; [12]): 1.67 kg | Total feed intake, 25-OH D3 v. control (δ) (pigs [1]; [12]): 9.25 kg | Total wt gain, 25-OH D3 v. control (δ) (pigs [1]; [12]): 5.59 kg | Daily weight gain (pigs [1]; [13]): 0.76 kg | Feed: Gain (pigs [1]; [13]): 2.16 | Final body wt (pigs [1]; [13]): 92.39 kg | Initial Body wt (pigs [1]; [13]): 8.88 kg | Total feed intake (pigs [1]; [13]): 179.35 kg | Total wt gain (pigs [1]; [13]): 83.51 kg | Daily weight gain, 25-OH D3 v. control (δ) (pigs [1]; [14]): 0.05 kg | Feed: Gain, 25-OH D3 v. control (δ) (pigs [1]; [14]): −0.13 | Final body wt, 25-OH D3 v. control (δ) (pigs [1]; [14]): 5.88 kg | Initial Body wt, 25-OH D3 v. control (δ) (pigs [1]; [14]): 0.75 kg | Total feed intake, 25-OH D3 v. control (δ) (pigs [1]; [14]): 0.52 kg | Total wt gain, 25-OH D3 v. control (δ) (pigs [1]; [14]): 5.12 kg | Daily wt gain (pigs [2]; [15]): 0.74 kg | Feed: Gain (pigs [2]; [15]): 2.34 | Final body wt (pigs [2]; [15]): 89.59 kg | Initial Body wt (pigs [2]; [15]): 8.44 kg | Total feed intake (pigs [2]; [15]): 190.05 kg | Total wt gain (pigs [2]; [15]): 81.15 kg | Daily wt gain, 25-OH D3 v. control (δ) (pigs [2]; [16]): 0.01 kg | Feed: Gain, 25-OH D3 v. control (δ) (pigs [2]; [16]): −0.06 | Final body wt, 25-OH D3 v. control (δ) (pigs [2]; [16]): 0.98 kg | Initial Body wt, 25-OH D3 v. control (δ) (pigs [2]; [16]): 0.11 kg | Total feed intake, 25-OH D3 v. control (δ) (pigs [2]; [16]): -0.89 kg | Total wt gain, 25-OH D3 v. control (δ) (pigs [2]; [16]): 0.88 kg | conversion of feed to weight gain compared with pigs fed without 25-OH D3 (pigs [2]; pigs weaned from sows not fed 25-OH D3): more efficiently | weight gain compared with pigs fed 25-OH D3 (Table 1) (pigs [3]): gain weight slower | body weight average (pigs [3]; farm records, n=23 pigs): 80.90 kg
